Patent publication US7645595B2, “Method of production of artificial skin” (Shiseido Company, Ltd., priority 2000, dated 2010)

Key:
[1] = tested on: Skin Model (artificial skin); basement membrane components laminin 5, type IV collagen, type VII collagen; assay: Artificial skin culture with MMP inhibitor and matrix protein production promoting agent: H&E staining and immunostaining for LN5, IVC, VIIC (Example 2, Table 1, FIG. 2-4); type: cell-based, human; conditions: CGS27023A 10 μM, TGFa/TGFb1 10 ng/ml, versus control
Procedure: Although the same method as Example 1 was repeated, the following substances were used as test substances. • (1) 10 μM matrix metalloproteinase inhibitor CGS27023A only; • (2) 10 μM matrix metalloproteinase inhibitor CGS27023A and 10 ng/ml of matrix […] protein production promoting agent, Transforming Growth Factor α (TGFa); • (3) 10 μM matrix metalloproteinase inhibitor CGS27023A and 10 ng/ml of matrix protein production promoting agent, Transforming Growth Factor β1 (TGFb1); • (4) 10 μM matrix metalloproteinase inhibitor CGS27023A, 10 ng/ml of matrix protein production promoting agent, Transforming Growth Factor α (TGFa) and 10 ng/ml of Transforming Growth Factor β1 (TGFb1); and • (5) culturing of a control to which none of the above were added. The formed artificial skin was stained by hematoxylin-eosin (H & E) and immunostaining (using anti-laminin 5 (LN5) antibody, anti-type IV collagen (IVC) antibody, and anti-type VII collagen (VIIC) antibody). Culturing was carried out in the same manner as above using the following plant extracts instead of the above matrix metalloproteinase inhibitor CGS27023A.

[2] = tested on: artificial skin (skin model: contracted collagen gel with human dermal fibroblasts plus epidermal keratinocytes); assay: Artificial skin culture with matrix metalloproteinase inhibitor: basement membrane formation seen in cross-section (Example 1, FIG. 1); type: cell-based; conditions: cultured 2 weeks, versus control without inhibitor
Procedure: Collagen gel was obtained by preparing 10 ml of a collagen solution of suspended fibroblasts (0.3 to 1×10^5 cells/ml) originating in human dermis (product I-AC of Koken Co., Ltd. was used for the collagen) on ice followed by gelling the collagen at 37° C. in a 60 mm Petri dish. Next, the gel was peeled from the walls of the Petri dish and the collagen gel was contracted in a CO2 incubator.
This contracted collagen gel equivalent to dermis was placed on a metal mesh and a glass ring (inner diameter: 12 mm) was placed over this gel. 0.4 ml of a suspension of epidermal keratinocytes (1×10^6/ml) (mixed medium of KGM-DMEM containing 5% fetal calf serum (1:1)) were placed inside the glass ring to prevent leakage of liquid. After adhering keratinocytes in a CO2 incubator overnight, the ring was removed on the following day.
After inoculating the epidermic cells, the medium was changed to that containing either (1) 10 μM CGS27023A (matrix metalloproteinase inhibitor) or (2) 300 μM MMP-inhibitor (p-NH2-Bz-Gly-Pro-D-Leu-D-Ala-NHOH (FN-437) (BBRC, 1994, 199, p. 1442-1446) (acquired from Cabbiochem. Novabiochem Corporation) (matrix metalloproteinase inhibitor)) starting in the first week, and then replaced with medium containing the same type and same concentration of matrix metalloproteinase inhibitor every 2-3 days after that and cultured for 2 weeks. […]

Compound: COc1ccc(S(=O)(=O)N(Cc2cccnc2)[C@@H](C(=O)NO)C(C)C)cc1.Cl [CGS27023A, N-hydroxy-2(R)-[[(4-methoxyphenyl)sulfonyl](3-picolyl)amino]-3-methylbutanamide hydrochloride]
- Adhesion between epidermis and dermis [1]: adhesion between the epidermis and dermis was clear
- Promotion of basement membrane formation (FIG. 1) ([2]; 10 μM in medium): promotion of basement membrane formation was clearly observed

Compound: p-NH2-Bz-Gly-Pro-D-Leu-Ala-NHOH [MMP-inhibitor]
- Promotion of basement membrane formation (FIG. 1) ([2]; 300 μM in medium): promotion of basement membrane formation was clearly observed
